In assay [1] the test system is cardiac fibroblasts (CFs). The assay is described as follows: Vimentin localisation in CFs by immunofluorescence microscopy. Format: cell-based, rat. Particulars: fragment expressed. As for the experimental part:
NP's ability to inhibit growth factor-induced CF differentiation into myofibroblasts was determined as follows. CFs were transiently transfected with insertless pcDNA3 vector or pcDNA3 encoding sNRF^(806-900) (see Example 7). The transfected CFs were then treated for 48 hours with 10 ng/ml basic fibroblast growth factor (FGF; Sigma-Aldrich #F0291) in the presence or absence of 100 nM ANP. Alpha-smooth muscle actin (α-SMA) protein expression, the principal marker of CF differentiation, was assessed by Western blotting and immunofluorescence microscopy. Vimentin staining was used as a loading control because it is expressed equally in fibroblasts and transdifferentiated myofibroblasts.
For the immunofluorescence microscopy, slide wells were treated as described in Example 7 and incubated with anti-α-SMA and anti-vimentin antibody as well as phalloidin to stain for actin. Briefly, cells were rinsed twice with phosphate-buffered saline (PBS) and fixed with 3.7% formaldehyde in PBS for 10 minutes. After fixation, cells were rinsed with PBS and permeabilized with 0.3% Triton X-100 in PBS for 10 minutes and blocked for 1 hour in 1% horse serum, 0.2% bovine serum albumin in PBS. Cells were then incubated with primary α-SMA antibody (ABCAM ab7817) and primary vimentin antibody (ABCAM ab7783) diluted in blocking solution for 1 hour and washed three times with blocking solution for 5 minutes. […]

The test system of the next assay is NPRA. The assay is described as follows: [35S]ATPγS incorporation into NPRA (receptor phosphorylation) in CFs. Format: cell-based, rat. Particulars: ANP 5 minutes, KT5823 1 μM or expressed fragment. As for the experimental part:
To identify receptor phosphorylation by PKG, ^[35S]ATPγS was employed as a substrate. [^35S] incorporation into NPRA was analyzed according to the method previously described (Joubert et al., Biochem. 40:11096-105, 2001). Briefly, the treated CFs were scraped into 100 μl ice-cold incubation buffer (25 mM HEPES, pH 7.4, 50 mM NaCl, 5 mM MgCl2, 0.2 μM okadaic acid, 1 mM Na3VO4, 10 mM NaH2PO4, 10 mM NaF, and protease inhibitors (complete mini-tablet, Roche) and lysed by repeated passage through a 22-gauge needle. Lysates were added to incubation buffer containing 1 μCi [^35S]ATPγS (specific activity >1000 Ci/mmol), final volume of 200 μl, incubated at 37° C. for 30 minutes. Proteins were analyzed by SDS-PAGE (7.5%) and subsequent autoradiography.

For another assay, the target named is T1, PKG (Rattus norvegicus, UniProt A9LNM8).
T1 construct: endogenous in cells; host or cells: primary neonatal rat cardiac fibroblasts transfected with 5'-FLAG sNRF fragments
T1 sequence (A9LNM8 1-671): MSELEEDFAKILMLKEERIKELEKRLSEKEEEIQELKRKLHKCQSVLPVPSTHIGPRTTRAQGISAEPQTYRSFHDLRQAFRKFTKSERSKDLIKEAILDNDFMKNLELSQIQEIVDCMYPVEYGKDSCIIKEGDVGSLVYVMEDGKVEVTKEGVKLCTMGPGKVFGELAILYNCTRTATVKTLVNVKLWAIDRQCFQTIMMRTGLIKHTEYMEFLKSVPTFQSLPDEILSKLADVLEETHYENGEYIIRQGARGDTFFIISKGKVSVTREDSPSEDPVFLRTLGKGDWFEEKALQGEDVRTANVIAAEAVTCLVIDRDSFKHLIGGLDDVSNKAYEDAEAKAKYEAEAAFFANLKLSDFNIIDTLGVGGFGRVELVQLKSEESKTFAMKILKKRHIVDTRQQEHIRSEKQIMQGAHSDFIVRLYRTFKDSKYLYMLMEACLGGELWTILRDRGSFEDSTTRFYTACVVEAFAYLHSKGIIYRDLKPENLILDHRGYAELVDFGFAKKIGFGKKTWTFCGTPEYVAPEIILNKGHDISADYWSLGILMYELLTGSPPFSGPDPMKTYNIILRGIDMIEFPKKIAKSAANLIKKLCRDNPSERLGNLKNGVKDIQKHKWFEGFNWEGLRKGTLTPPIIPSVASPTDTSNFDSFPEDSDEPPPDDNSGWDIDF
The assay is described as follows: Co-immunoprecipitation of PKG with FLAG-tagged NPRA fragments in primary CFs. Particulars: 5'-FLAG-tagged fragment in transfected CFs, anti-FLAG M2 affinity gel. Format: binding. As for the experimental part:
Neonatal rat ventricular fibroblasts (CFs) were cultured from 1 to 2-day-old Harlan Sprague-Dawley rats as described previously (Simpson, Circulation Res. 56:884-94, 1985). Briefly, ventricles were dissected free from atria and quartered. Following dissociation in ADS buffer containing 1.5 mg/ml trypsin (Gibco #27250-018) and 1% DNase solution (2 mg/ml DNase type II, 150 mM NaCl) with serum neutralization the collected cells were pre-incubated in media at 37° C. for 90 minutes to allow CF attachment to the bottom of culture dishes. CFs were incubated in plating media for 48 hours, divided into 6-well culture plates or dual-well chamberslides, and grown to 50% confluency in DMEM with 10% FBS prior to use.
CFs were transiently transfected with nucleic acid molecules encoding sNRF^(806-1061), sNRF^(806-900), or sNRF^(806-860) using routine methods. Briefly, PCR-generated, 5′-FLAG epitope-tagged sNRFs were subcloned into the BamHI and EcoRI sites of pCDNA3 (Invitrogen) and sequenced to verify construction accuracy. […]
The ability of the NPRA fragments to immunoprecipitate PKG was determined in the primary CF cells transfected with the 5′-FLAG epitope-tagged NPRA fragments as follows. […] Bound antibody was detected with chemiluminescent substrate (Western Lightning ECL, PerkinElmer Life Sciences).

Take “sNRF^(806-900): intracellular NPRA fragment, residues 806-900, excludes the cyclase-containing domain; shortest fragment observed to associate with PKG”: the “ANP-associated nuclear to cytosolic translocation of vimentin” value in assay [1] was “inhibited”. Besides, the “ANP-induced NPRA phosphorylation” value in the assay with NPRA is reported as “reduced ANP-induced NPRA phosphorylation to control levels”. Moreover, the “co-immunoprecipitation of PKG” value in the assay with PKG is recorded as “co-immunoprecipitated PKG”.

Values taken from patent US7943296B2, “Methods of screening using a natriuretic peptide receptor” (Oregon Health & Science University, priority 2005, dated 2011).
